Data on 7 molecules can be found in ChEMBL document CHEMBL1129258, “Synthesis and structure-activity relationships of 2-pyridones: a novel series of potent DNA gyrase inhibitors as antibacterial agents” (J Med Chem, 1996).

Assay [1] relates to Enterococcus faecalis. As to the kind of experiment: Inhibitory activity against enterococcus faecalis Van B. Type of assay: functional.
In assay [2] the target is T1, DNA gyrase (Escherichia coli) (UniProt P0AES6+P0AES4). In words: In vitro antibacterial activity against gram-negative organism […] ATCC 13048. Type of assay: functional. The settings on record: Enterobacter aerogenes.
Assay [3] concerns Enterococcus faecium. In words: Inhibitory activity against enterococcus faecium Van A. Type of assay: functional.
In assay [4] the target is T1, DNA gyrase (Escherichia coli). As to the kind of experiment: In vitro antibacterial against gram-negative organism Escherichia coli JUHL. Particulars: Escherichia coli K-12. It counts as functional.
The target is the same in assay [5]. In words: In vitro antibacterial activity against gram-negative organism Klebsiella pneumoniae ATCC 8045. It counts as functional.
For assay [6] the target is unchanged. As to the kind of experiment: In vitro antibacterial activity against gram-negative organism Prov. stuartii CMX-640. Type of assay: functional. The settings on record: Providencia stuartii.
Assay [7] can be described thus: In vitro antibacterial activity against gram-negative organism Pseudomonas aeruginosa 5007. Particulars: Pseudomonas aeruginosa; read-out: MIC. Type of assay: functional.
Assay [8] in a line: In vitro antibacterial activity against gram-negative organism Pseudomonas aeruginosa DPHD-2862. It counts as functional. Particulars: Pseudomonas aeruginosa; read-out: MIC.
Assay [9] deals with T2, DNA gyrase (Staphylococcus aureus) (UniProt P0A0K8+P20831). As to the kind of experiment: In vitro antibacterial activity against gram-positive organism Staphylococcus aureus 1775. Type of assay: functional.
In assay [10] the target is T2, DNA gyrase (Staphylococcus aureus). In words: In vitro antibacterial activity against gram-positive organism Staphylococcus aureus ATCC 6538p. It counts as functional.
For assay [11] the target is unchanged. As to the kind of experiment: In vitro antibacterial activity against gram-positive organism Staphylococcus aureus NCTC-10649M. It counts as functional.
Assay [12] addresses T1, DNA gyrase (Escherichia coli). In words: In vitro antibacterial activity against gram-positive organism Streptococcus bovis A-5169. Type of assay: functional. The settings on record: Streptococcus equinus.
The subject of assay [13] is Streptococcus pyogenes. As to the kind of experiment: In vitro antibacterial activity against gram-positive organism Streptococcus pyogenes EES61. Type of assay: functional. Particulars: Streptococcus pyogenes; read-out: MIC.
In assay [14] the target is T1, DNA gyrase (Escherichia coli). In words: In vitro antibacterial activity against gram-positive organism Enterococcus faecium ATCC 8043. It counts as functional.
The target is the same in assay [15]. The settings on record: Escherichia coli K-12.
Description: Concentration which causes 50% of the gyrase (Escherichia coli H560)-mediated maximal DNA cleavage.
Assay [16] shares this target. In words: In vivo efficacy against Escherichia coli JUHL after oral administration. Type of assay: functional, organism-based. The settings on record: Escherichia coli K-12.
For assay [17] the target is unchanged. As to the kind of experiment: In vivo efficacy against Escherichia coli JUHL by subcutaneous administration. Type of assay: functional, organism-based. Particulars: Escherichia coli K-12.
For assay [18], the target named is T2, DNA gyrase (Staphylococcus aureus). In words: In vivo efficacy against Staphylococcus aureus NCTC-10649M after oral administration. It counts as functional, organism-based.
Assay [19] has the same target. As to the kind of experiment: In vivo efficacy against Staphylococcus aureus NCTC-10649M after subcutaneous administration. It counts as functional, organism-based.
The subject of assay [20] is Pseudomonas aeruginosa. As to the kind of experiment: In vivo efficacy against Pseudomonas aeruginosa 5007 following p.o. administration.
Assay [21] is described as follows: In vivo efficacy against Pseudomonas aeruginosa 5007 after subcutaneous administration. It counts as functional. The settings on record: Pseudomonas aeruginosa, sc; read-out: ED50.
Assay [22] has as its system Streptococcus pneumoniae. As to the kind of experiment: In vivo efficacy against Strep. administration. It counts as functional.

Values after ≈ are worked out from the molar mass of the structure shown.

T2 sequence (P0A0K8 2-644 limits assumed): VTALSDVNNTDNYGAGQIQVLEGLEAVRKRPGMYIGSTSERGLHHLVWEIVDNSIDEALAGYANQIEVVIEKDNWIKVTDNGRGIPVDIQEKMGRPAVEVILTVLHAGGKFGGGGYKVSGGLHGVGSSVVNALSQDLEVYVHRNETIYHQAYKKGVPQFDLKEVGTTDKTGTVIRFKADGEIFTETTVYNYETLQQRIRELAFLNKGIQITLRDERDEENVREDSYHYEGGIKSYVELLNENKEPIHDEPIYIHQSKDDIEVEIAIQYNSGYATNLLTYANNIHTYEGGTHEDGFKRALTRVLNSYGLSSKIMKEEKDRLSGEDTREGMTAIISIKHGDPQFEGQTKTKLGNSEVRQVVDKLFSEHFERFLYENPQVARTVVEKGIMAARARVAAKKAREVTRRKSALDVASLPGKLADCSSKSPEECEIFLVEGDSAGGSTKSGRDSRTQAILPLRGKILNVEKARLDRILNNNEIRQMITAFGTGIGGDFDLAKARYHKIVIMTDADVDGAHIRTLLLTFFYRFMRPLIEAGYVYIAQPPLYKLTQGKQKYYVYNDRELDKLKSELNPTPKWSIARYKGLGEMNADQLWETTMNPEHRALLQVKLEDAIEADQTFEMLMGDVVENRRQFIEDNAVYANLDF
T2 sequence (P20831 whole entry partner): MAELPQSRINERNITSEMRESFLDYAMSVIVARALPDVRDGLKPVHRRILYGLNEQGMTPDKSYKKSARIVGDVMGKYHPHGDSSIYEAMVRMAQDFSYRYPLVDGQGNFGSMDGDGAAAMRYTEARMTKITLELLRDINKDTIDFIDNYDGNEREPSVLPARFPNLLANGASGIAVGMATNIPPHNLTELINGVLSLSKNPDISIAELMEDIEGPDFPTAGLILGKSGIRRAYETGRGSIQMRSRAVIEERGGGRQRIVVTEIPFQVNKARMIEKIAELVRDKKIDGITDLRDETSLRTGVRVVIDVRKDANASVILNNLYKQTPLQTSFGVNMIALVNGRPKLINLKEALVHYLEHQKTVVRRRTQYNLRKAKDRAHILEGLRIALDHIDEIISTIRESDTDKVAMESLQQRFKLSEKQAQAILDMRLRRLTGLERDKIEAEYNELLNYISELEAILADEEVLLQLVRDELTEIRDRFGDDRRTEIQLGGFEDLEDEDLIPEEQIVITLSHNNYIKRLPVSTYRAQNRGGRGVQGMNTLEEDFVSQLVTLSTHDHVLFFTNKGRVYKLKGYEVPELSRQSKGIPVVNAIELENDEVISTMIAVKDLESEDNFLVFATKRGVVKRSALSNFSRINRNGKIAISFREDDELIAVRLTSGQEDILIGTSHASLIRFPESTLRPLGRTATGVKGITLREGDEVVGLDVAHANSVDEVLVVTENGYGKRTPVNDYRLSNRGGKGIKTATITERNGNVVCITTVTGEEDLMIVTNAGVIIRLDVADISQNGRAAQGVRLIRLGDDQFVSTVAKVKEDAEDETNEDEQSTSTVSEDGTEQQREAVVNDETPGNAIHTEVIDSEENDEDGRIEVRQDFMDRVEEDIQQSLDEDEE

With `Cc1c(N2CCC(CN)C2)c(F)cn2c(=O)c(C(=O)O)cc(C3CC3)c12` (configuration not stated), the MIC in assay [1] was 0.015 µg/mL (≈ 0.0417 µM); in assay [2], 0.01 µg/mL (≈ 0.0278 µM); in [3], 0.03 µg/mL (≈ 0.0835 µM); in [4] it was 0.005 µg/mL (≈ 0.0139 µM); in assay [5] it was 0.005 µg/mL (≈ 0.0139 µM); in assay [6], 0.39 µg/mL (≈ 1.09 µM). For the same molecule, the MIC came out at 0.1 µg/mL (≈ 0.278 µM) in [7]; 1.56 µg/mL (≈ 4.34 µM) in [8]; 0.39 µg/mL (≈ 1.09 µM) in [9]; 0.002 µg/mL (≈ 0.00556 µM) in assay [10]; 0.002 µg/mL (≈ 0.00556 µM) in assay [11]; 0.002 µg/mL (≈ 0.00556 µM) in assay [12]. The results for the MIC in assay [13] and in assay [14] were 0.002 µg/mL (≈ 0.00556 µM) and 0.01 µg/mL (≈ 0.0278 µM), respectively. Besides, the CC50 in assay [15] amounted to 0.05 µg/mL (≈ 0.139 µM).

`Cc1c(N2C[C@@H]3CCCN[C@@H]3C2)c(F)cn2c(=O)c(C(=O)O)cc(C3CC3)c12` (stereo in doubt; 45n): the ED50 in assay [16] worked out at 3.3 mg/kg; in assay [17], 1 mg/kg; in assay [18], 3.1 mg/kg; in assay [19], 0.9 mg/kg; in [20] it was 36.4 mg/kg. Besides, the MIC in [2] turned out to be 0.05 µg/mL (≈ 0.13 µM); in assay [4], 0.05 µg/mL (≈ 0.13 µM); in [5], 0.01 µg/mL (≈ 0.0259 µM); in assay [6] it was 0.78 µg/mL (≈ 2.02 µM); in [9], 0.78 µg/mL (≈ 2.02 µM); in assay [10], 0.01 µg/mL (≈ 0.0259 µM). Besides, the MIC in [11] came out at 0.02 µg/mL (≈ 0.0519 µM); in assay [12] it was 0.05 µg/mL (≈ 0.13 µM); in assay [14], 0.1 µg/mL (≈ 0.259 µM). The same molecule had a CC50 in [15] of 0.3 µg/mL (≈ 0.778 µM).

In the case of `Cc1c(N2CC[C@H]([C@@H](C)N)C2)c(F)cn2c(=O)c(C(=O)O)cc(C3CC3)c12`, the MIC in assay [2] turned out to be 0.02 µg/mL (≈ 0.0536 µM); in assay [4], 0.01 µg/mL (≈ 0.0268 µM); in assay [5] it was 0.01 µg/mL (≈ 0.0268 µM); in [6], 0.39 µg/mL (≈ 1.04 µM); in assay [7], 0.2 µg/mL (≈ 0.536 µM); in assay [8], 3.1 µg/mL (≈ 8.3 µM). The MIC in [9] was 0.2 µg/mL (≈ 0.536 µM); in [10], 0.002 µg/mL (≈ 0.00536 µM); in assay [11], 0.002 µg/mL (≈ 0.00536 µM); in assay [12], 0.005 µg/mL (≈ 0.0134 µM); in assay [13], under 0.001 µg/mL; in assay [14], 0.01 µg/mL (≈ 0.0268 µM). Further, the ED50 was over 8 mg/kg in assay [21], 1.2 mg/kg in assay [18] and 0.3 mg/kg in [19]. The CC50 in assay [15] was found to be 0.6 µg/mL (≈ 1.61 µM).

For the molecule `Cc1c(N2C[C@@H]3CCN[C@@H]3C2)c(F)cn2c(=O)c(C(=O)O)cc(C3CC3)c12` (stereo in doubt; 45o), the ED50 in assay [16] turned out to be 2.5 mg/kg; in assay [17] it was 0.4 mg/kg; in assay [18] it was 5 mg/kg; in [19] it was 0.7 mg/kg. The MIC in [2] stood at 0.05 µg/mL (≈ 0.135 µM); in [4], 0.02 µg/mL (≈ 0.0538 µM); in [5], 0.01 µg/mL (≈ 0.0269 µM); in assay [6], 0.78 µg/mL (≈ 2.1 µM); in assay [9], 0.39 µg/mL (≈ 1.05 µM); in assay [10], 0.02 µg/mL (≈ 0.0538 µM). For the same molecule, the figures for the MIC in assay [11], in assay [12] and in assay [14] were 0.02 µg/mL (≈ 0.0538 µM), 0.05 µg/mL (≈ 0.135 µM) and 0.05 µg/mL (≈ 0.135 µM), respectively. In assay [15], the CC50 came out at 0.1 µg/mL (≈ 0.269 µM).

`Cc1c(N2CCC(n3cccc3)C2)c(F)cn2c(=O)c(C(=O)O)cc(C3CC3)c12` (configuration not stated): the MIC in assay [1] was 0.03 µg/mL (≈ 0.0759 µM); in assay [2] it was 0.39 µg/mL (≈ 0.986 µM); in assay [3] it was 0.5 µg/mL (≈ 1.26 µM); in [4], 0.1 µg/mL (≈ 0.253 µM); in assay [5], 0.05 µg/mL (≈ 0.126 µM); in assay [6], 1.56 µg/mL (≈ 3.95 µM). Besides, the MIC in assay [7] was 1.56 µg/mL (≈ 3.95 µM); in [8] it was 25 µg/mL (≈ 63.2 µM); in assay [9], 0.39 µg/mL (≈ 0.986 µM); in assay [10] it was 0.02 µg/mL (≈ 0.0506 µM); in assay [11], 0.01 µg/mL (≈ 0.0253 µM); in assay [12], 0.2 µg/mL (≈ 0.506 µM). The MIC in assay [13] and in assay [14] was 0.1 µg/mL (≈ 0.253 µM) throughout. The same molecule gave a CC50 in [15] of 0.04 µg/mL (≈ 0.101 µM).

Consider `NC1CCN(c2nc3c(C4CC4)cc(C(=O)O)c(=O)n3cc2F)C1` (configuration not stated), for which the ED50 in assay [16] was 4.7 mg/kg; in assay [17], 1 mg/kg; in assay [18], over 12 mg/kg; in assay [19], over 8 mg/kg. In addition, the MIC in assay [2] turned out to be 0.02 µg/mL (≈ 0.0602 µM); in assay [4] it was 0.02 µg/mL (≈ 0.0602 µM); in assay [5], 0.02 µg/mL (≈ 0.0602 µM); in [6], 1.56 µg/mL (≈ 4.69 µM); in assay [7] it was 0.39 µg/mL (≈ 1.17 µM); in assay [8] it was 25 µg/mL (≈ 75.2 µM). Besides, the MIC in [9] is 25 µg/mL (≈ 75.2 µM); in assay [10], 0.2 µg/mL (≈ 0.602 µM); in assay [11] it was 0.2 µg/mL (≈ 0.602 µM); in assay [12], 3.1 µg/mL (≈ 9.33 µM); in [13], 1.56 µg/mL (≈ 4.69 µM); in assay [14], 1.56 µg/mL (≈ 4.69 µM). The molecule also came in with a CC50 in assay [15] of 0.15 µg/mL (≈ 0.451 µM).

With `Cc1c(N2C[C@@H]3[C@@H](N)[C@@H]3C2)c(F)cn2c(=O)c(C(=O)O)cc(C3CC3)c12`, the ED50 was over 10 mg/kg in assay [16]; 1.4 mg/kg in assay [17]; 18 mg/kg in [21]; 14.6 mg/kg in assay [18]; 4.1 mg/kg in assay [19]; 6.7 mg/kg in assay [22]. In [20], this molecule displayed an ED50 of over 50 mg/kg. For the same molecule, the MIC stood at 0.02 µg/mL (≈ 0.056 µM) in assay [2]; 0.01 µg/mL (≈ 0.028 µM) in assay [4]; 0.01 µg/mL (≈ 0.028 µM) in assay [5]; 0.78 µg/mL (≈ 2.18 µM) in assay [6]; 0.2 µg/mL (≈ 0.56 µM) in assay [7]; 6.2 µg/mL (≈ 17.3 µM) in assay [8]. Further, the MIC in assay [9] amounted to 1.56 µg/mL (≈ 4.37 µM); in [10], 0.02 µg/mL (≈ 0.056 µM); in assay [11], 0.02 µg/mL (≈ 0.056 µM); in assay [12], 0.1 µg/mL (≈ 0.28 µM); in assay [13], 0.1 µg/mL (≈ 0.28 µM); in assay [14], 0.1 µg/mL (≈ 0.28 µM). The molecule also came in with a CC50 in [15] of 0.3 µg/mL (≈ 0.839 µM).
